Data as given in the NIST ThermoML archive (doi:10.1016/j.fluid.2017.10.027).
± gives the expanded uncertainty stated by the source.

Conditions: Liquid; for mass density: Vibrating tube method; for speed of sound: Sing-around technique in a fixed-path interferometer

CCCCOCCO [2-butoxyethan-1-ol]
Conditions | mass density, 100 kPa [kg/m3] | mass density, 101.33 kPa [kg/m3] | mass density, 2500 kPa [kg/m3] | mass density, 5000 kPa [kg/m3] | mass density, 10000 kPa [kg/m3] | mass density, 15000 kPa [kg/m3] | mass density, 20000 kPa [kg/m3] | mass density, 25000 kPa [kg/m3] | mass density, 30000 kPa [kg/m3] | speed of sound, 101.33 kPa [m/s]
293.15 K | 900 ± 2 | – | 902 ± 2 | 903 ± 2 | 907 ± 2 | 910 ± 2 | 913 ± 2 | 916 ± 2 | 919 ± 2 | –
298.15 K | – | 896.17 ± 0.23 | – | – | – | – | – | – | – | 1304.7 ± 3.2
303.15 K | 892 ± 2 | – | 893 ± 2 | 895 ± 2 | 899 ± 2 | 902 ± 2 | 905 ± 2 | 909 ± 2 | 912 ± 2 | –
313.15 K | 883 ± 2 | – | 885 ± 2 | 887 ± 2 | 889 ± 2 | 894 ± 2 | 898 ± 2 | 901 ± 2 | 904 ± 2 | –
323.15 K | 873 ± 2 | – | 875 ± 2 | 877 ± 2 | 879 ± 2 | 886 ± 2 | 890 ± 2 | 893 ± 2 | 896 ± 2 | –
333.15 K | 866 ± 2 | – | 868 ± 2 | 870 ± 2 | 874 ± 2 | 878 ± 2 | 882 ± 2 | 885 ± 2 | 889 ± 2 | –
343.15 K | 857 ± 2 | – | 860 ± 2 | 862 ± 2 | 866 ± 2 | 870 ± 2 | 874 ± 2 | 877 ± 2 | 881 ± 2 | –
353.15 K | 849 ± 2 | – | 851 ± 2 | 853 ± 2 | 857 ± 2 | 862 ± 2 | 866 ± 2 | 869 ± 2 | 873 ± 2 | –
363.15 K | 839 ± 2 | – | 842 ± 2 | 844 ± 2 | 849 ± 2 | 853 ± 2 | 857 ± 2 | 861 ± 2 | 865 ± 2 | –
373.15 K | 830 ± 2 | – | 833 ± 2 | 835 ± 2 | 840 ± 2 | 845 ± 2 | 849 ± 2 | 853 ± 2 | 857 ± 2 | –
383.15 K | 821 ± 2 | – | 823 ± 2 | 826 ± 2 | 831 ± 2 | 836 ± 2 | 841 ± 2 | 845 ± 2 | 849 ± 2 | –
393.15 K | 811 ± 2 | – | 814 ± 2 | 817 ± 2 | 822 ± 2 | 827 ± 2 | 832 ± 2 | 837 ± 2 | 841 ± 2 | –
403.15 K | 801 ± 2 | – | 804 ± 2 | 807 ± 2 | 813 ± 2 | 819 ± 2 | 824 ± 2 | 829 ± 2 | 833 ± 2 | –
413.15 K | 790 ± 2 | – | 794 ± 2 | 797 ± 2 | 804 ± 2 | 810 ± 2 | 815 ± 2 | 821 ± 2 | 825 ± 2 | –

CCOCCO [2-ethoxyethan-1-ol]
Conditions | mass density, 100 kPa [kg/m3] | mass density, 101.33 kPa [kg/m3] | mass density, 2500 kPa [kg/m3] | mass density, 5000 kPa [kg/m3] | mass density, 10000 kPa [kg/m3] | mass density, 15000 kPa [kg/m3] | mass density, 20000 kPa [kg/m3] | mass density, 25000 kPa [kg/m3] | mass density, 30000 kPa [kg/m3] | speed of sound, 101.33 kPa [m/s]
293.15 K | 931 ± 2 | – | 933 ± 2 | 934 ± 2 | 938 ± 2 | 941 ± 2 | 944 ± 2 | 947 ± 2 | 950 ± 2 | –
298.15 K | – | 925.64 ± 0.23 | – | – | – | – | – | – | – | 1305.7 ± 3.2
303.15 K | 922 ± 2 | – | 924 ± 2 | 925 ± 2 | 929 ± 2 | 932 ± 2 | 936 ± 2 | 939 ± 2 | 942 ± 2 | –
313.15 K | 913 ± 2 | – | 914 ± 2 | 916 ± 2 | 920 ± 2 | 924 ± 2 | 927 ± 2 | 930 ± 2 | 933 ± 2 | –
323.15 K | 903 ± 2 | – | 905 ± 2 | 907 ± 2 | 911 ± 2 | 915 ± 2 | 918 ± 2 | 922 ± 2 | 925 ± 2 | –
333.15 K | 894 ± 2 | – | 896 ± 2 | 898 ± 2 | 902 ± 2 | 906 ± 2 | 910 ± 2 | 913 ± 2 | 917 ± 2 | –
343.15 K | 884 ± 2 | – | 886 ± 2 | 889 ± 2 | 893 ± 2 | 897 ± 2 | 901 ± 2 | 905 ± 2 | 908 ± 2 | –
353.15 K | 874 ± 2 | – | 877 ± 2 | 879 ± 2 | 884 ± 2 | 888 ± 2 | 892 ± 2 | 896 ± 2 | 900 ± 2 | –
363.15 K | 864 ± 2 | – | 867 ± 2 | 869 ± 2 | 874 ± 2 | 879 ± 2 | 883 ± 2 | 887 ± 2 | 891 ± 2 | –
373.15 K | 854 ± 2 | – | 857 ± 2 | 859 ± 2 | 865 ± 2 | 869 ± 2 | 874 ± 2 | 878 ± 2 | 882 ± 2 | –
383.15 K | 843 ± 2 | – | 846 ± 2 | 849 ± 2 | 855 ± 2 | 860 ± 2 | 865 ± 2 | 869 ± 2 | 874 ± 2 | –
393.15 K | 832 ± 2 | – | 836 ± 2 | 839 ± 2 | 845 ± 2 | 850 ± 2 | 855 ± 2 | 860 ± 2 | 865 ± 2 | –

CCCOCCO [2-propoxyethanol]
Conditions | mass density, 100 kPa [kg/m3] | mass density, 101.33 kPa [kg/m3] | mass density, 2500 kPa [kg/m3] | mass density, 5000 kPa [kg/m3] | mass density, 10000 kPa [kg/m3] | mass density, 15000 kPa [kg/m3] | mass density, 20000 kPa [kg/m3] | mass density, 25000 kPa [kg/m3] | mass density, 30000 kPa [kg/m3] | speed of sound, 101.33 kPa [m/s]
293.15 K | 911 ± 2 | – | 913 ± 2 | 915 ± 2 | 918 ± 2 | 922 ± 2 | 925 ± 2 | 928 ± 2 | 931 ± 2 | –
298.15 K | – | 907.23 ± 0.15 | – | – | – | – | – | – | – | 1298.8 ± 3.1
303.15 K | 903 ± 2 | – | 904 ± 2 | 906 ± 2 | 910 ± 2 | 913 ± 2 | 917 ± 2 | 920 ± 2 | 923 ± 2 | –
313.15 K | 894 ± 2 | – | 896 ± 2 | 898 ± 2 | 901 ± 2 | 905 ± 2 | 908 ± 2 | 912 ± 2 | 915 ± 2 | –
323.15 K | 885 ± 2 | – | 887 ± 2 | 889 ± 2 | 893 ± 2 | 897 ± 2 | 900 ± 2 | 904 ± 2 | 907 ± 2 | –
333.15 K | 876 ± 2 | – | 878 ± 2 | 880 ± 2 | 884 ± 2 | 888 ± 2 | 892 ± 2 | 895 ± 2 | 899 ± 2 | –
343.15 K | 867 ± 2 | – | 869 ± 2 | 871 ± 2 | 875 ± 2 | 879 ± 2 | 883 ± 2 | 887 ± 2 | 891 ± 2 | –
353.15 K | 857 ± 2 | – | 860 ± 2 | 862 ± 2 | 866 ± 2 | 871 ± 2 | 875 ± 2 | 879 ± 2 | 882 ± 2 | –
363.15 K | 848 ± 2 | – | 850 ± 2 | 853 ± 2 | 857 ± 2 | 862 ± 2 | 866 ± 2 | 870 ± 2 | 874 ± 2 | –
373.15 K | 838 ± 2 | – | 840 ± 2 | 843 ± 2 | 848 ± 2 | 853 ± 2 | 858 ± 2 | 862 ± 2 | 866 ± 2 | –
383.15 K | 828 ± 2 | – | 830 ± 2 | 833 ± 2 | 839 ± 2 | 844 ± 2 | 849 ± 2 | 853 ± 2 | 858 ± 2 | –
393.15 K | 817 ± 2 | – | 820 ± 2 | 823 ± 2 | 829 ± 2 | 835 ± 2 | 840 ± 2 | 845 ± 2 | 849 ± 2 | –
403.15 K | 806 ± 2 | – | 810 ± 2 | 813 ± 2 | 819 ± 2 | 825 ± 2 | 831 ± 2 | 836 ± 2 | 841 ± 2 | –
413.15 K | 795 ± 2 | – | 799 ± 2 | 803 ± 2 | 810 ± 2 | 816 ± 2 | 822 ± 2 | 827 ± 2 | 832 ± 2 | –
